In patent publication US20240376108A1, “SALT AND CRYSTAL FORM OF PYRAZOLE-CONTAINING POLYCYCLIC DERIVATIVE, AND PREPARATION METHOD THEREFOR AND USE THEREOF” (Shanghai Hansoh Biomedical Co., Ltd., priority 2021, published 2024):

What was measured:
[1] = Metabolic stability in liver microsome (mouse); assay type: in vitro ADME
Method: (§1) Test Example 5. Assay of Metabolic Stability in Liver Microsome
(§2) 1. Experimental objective: The objective of the experiment is to determine the stability of the compounds of the Examples in liver microsome of mouse, rat, dog and human.
(§3) 2.1 Formulation of the working solution of the compound: Formulation of the working solution of the compound: The stock solution of the compound was added to phosphate buffer, and the final concentration was 20 μM.
(§4) 2.2 Formulation of the working solution of liver microsome: Liver microsome was diluted with 100 mM phosphate buffer to obtain a final concentration of 0.625 mg/mL.
(§5) 2.3 Formulation of NADPH and UDPGA: NADPH (reduced nicotinamide adenine dinucleotide phosphate) and UDPGA (uridine diphosphate glucuronic acid) were weighed respectively, followed by addition of 100 mM phosphate buffer. The final concentrations were 20 mM.
(§6) 2.4 Formulation of the channel-forming reagent: 1 mg of Alamethicin was weighed, to which 200 μL of DMSO was added to obtain a 5 mg/mL solution. The solution was diluted with phosphate buffer to obtain a final concentration of 50 μg/mL.
(§7) 2.5 Formulation of the reaction stop solution: Stop solution: Cold acetonitrile containing 100 ng/mL labetalol hydrochloride and 400 ng/mL tolbutamide as internal standards.
(§8) 2.6 Incubation procedure: 400 μL of the prepared liver microsome, 25 μL of the working solution of the compound and 25 μL of Alamethicin were added to a 96-well plate successively, which was then pre-incubated at 37° C. for 10 minutes. 50 μL of the prepared NADPH/UDPGA was added to initiate the reaction, and the plate was incubated at 37° C. The total volume of the reaction system was 500 μL. The final contents of the components were as follows:
(§9) 2.7.1 Chromatographic conditions: • Instrument: Shimadzu LC-30 AD; Chromatographic column: XBridge® C18 (50*4.6 mm, particle size: 5 μm); • Mobile phase: A: 0.1% formic acid solution, B: methanol • Eluent gradient: 0.2˜1.6 min 5% A to 95% A, 3.0˜3.1 min 95% A to 5% A • Running time: 4.0 min.
(§10) 2.7.2 Mass spectrometry conditions: • Instrument: API5500 liquid chromatography-mass spectrometer, AB Sciex; • Ion source: Electrospray ionization source (ESI); Drying gas: N2, temperature: 500° C.; • Electrospray voltage: 5000V; Detection method: Positive ion detection; • Scanning mode: Mode of reaction monitoring (MRM).

[2] = Metabolic stability in liver microsome (rat); assay type: in vitro ADME; settings: for Rat Remaining (%, 60 min): rat liver microsome
Method: as §1, §2, §3, §4, §5, §6, §7, §8, §9, §10

[3] = Metabolic stability in liver microsome (human); assay type: in vitro ADME; settings: for Human t1/2: human liver microsome 0.5 mg/mL, compound 1 μM, NADPH/UDPGA; for Human Remaining (%, 60 min): human liver microsome
Method: as §1, §2, §3, §4, §5, §6, §7, §8, §9, §10

[4] = tested on: BALB/c mice; test: Taste sensitivity assay in BALB/c mice (quinine solution intake); assay type: in vivo; settings: 30 mpk; for Solution consumption of single mouse, Quinine solution: 3 mmol/L quinine hydrochloride, 30 min
Description: Test Example 9. Taste Sensitivity Assay in BALB/c Mice
1. Experimental objective: In this assay, compounds with less toxic and side effects on animal taste were screened by quinine bitter solution experiment.
2.2 Reagents: Quinine monohydrochloride dihydrate (6119-47-7, Adamas).
2.3 Animals: BALB/c mice, 6 to 8 weeks old, ♂, purchased from Shanghai SIPPR-BK Laboratory Animal Co., Ltd.
3.1 Animal screening: One day before the experiment, all BALB/c mice were weighed, and animals with too high or too low body weight were excluded.
3.2 Grouping and water deprivation: BALB/c mice were randomly grouped according to body weight, and were deprived of water 12 to 16 hours before administration with no fasting.
3.3 Formulation of aqueous solution of quinine: An appropriate amount of quinine monohydrochloride dihydrate was weighed and formulated into an aqueous solution quinine hydrochloride (concentration: 3 mmol/L) with ultrapure water for later use.
3.4 Formulation of test compound: An appropriate amount of the test compound was weighed and formulated into the target concentration with the corresponding solvent according to the experimental design for later use.
3.5 Administration and quinine solution intake assay in animal: Administration and fasting: On the day of the experiment, the animals were weighed and fasted, bedding was changed, and the compounds were administered according to the experimental design.
1. The corresponding clean mouse drinking bottle was rinsed 2 to 3 times with ultrapure water and the formulated 3 mmol/L aqueous solution of quinine hydrochloride respectively. The bottle was filled and weighed, and the weight was recorded as Wi0.
2. According to the experimental design, a certain period after administration, the filled bottle was gently placed in the corresponding mouse cage, and the timing was started. After 30 min, the bottle was gently taken out and weighed, and the weight was recorded as Wi30.
3. Calculation of solution consumption of animals in each group: ΔWW(g)=[…]; calculation of solution consumption of single mouse: ΔpWW(g)=ΔWW/N, N is the number of animals in each group.
4. Dysgeusia rate=(ΔpWW of the group in which the drinking water was the aqueous solution of quinine hydrochloride and the test compound was administered at the same time−ΔpWW of the group in which the drinking water was the aqueous solution of quinine hydrochloride and the solvent control was administered at the same time)/(ΔpWW of the group in which the drinking water was ultrapure water and the solvent control was administered at the same time−ΔpWW of the group in which the drinking water was the aqueous solution of quinine hydrochloride and the solvent control was administered at the same time)×100%. Data processing was performed with software such as Excel.

[5] = Metabolic stability in liver microsome (dog); assay type: in vitro ADME; settings: for Dog Remaining (%, 60 min): dog liver microsome
Method: as §1, §2, §3, §4, §5, §6, §7, §8, §9, §10

Row | Compound | Mouse Remaining (%, 60 min) [1] [%] | Rat Remaining (%, 60 min) [2] [%] | Human t1/2 [3] | Human Remaining (%, 60 min) [3] [%] | Dysgeusia rate [4] [%] | Solution consumption of single mouse, Quinine solution [4] [g] | Dog t1/2 ([5]; dog liver microsome 0.5 mg/mL, compound 1 μM, NADPH/UDPGA) [h] | Dog Remaining (%, 60 min) [5] [%] | Rat t1/2 ([2]; rat liver microsome 0.5 mg/mL, compound 1 μM, NADPH/UDPGA)
1 | CCc1cc2n(CC(=O)Nc3ccc(F)cn3)c(=O)c3ccc(C(F)(F)F)nc3n2n1 [Example 12, 2-(2-Ethyl-5-oxo-8-(trifluoromethyl)pyrazolo[1,5-a]pyrido[3,2-e]pyrimidin-4(5H)-yl)-N-(5-fluoropyridin-2-yl)acetamide] | 81.3 | 104.4 | ∞ | 113.9 |  |  |  |  | 
2 | O=C(Cn1c(=O)c2ccc(C(F)(F)F)nc2n2nc(Br)cc12)Nc1ccc(F)cn1 [Example 15, 2-(2-bromo-5-oxo-8-(trifluoromethyl)pyrazolo[1,5-a]pyrido[3,2-e]pyrimidin-4(5H)-yl)-N-(5-fluoropyridin-2-yl)acetamide] | 92.5 | 102.3 | ∞ | 100.4 | −3.77 | 0.048 | 15.62 | 96.0 | 
3 | N#Cc1cc2n(CC(=O)Nc3ccc(F)cn3)c(=O)c3ccc(C(F)(F)F)nc3n2n1 [Example 17, 2-(2-Cyano-5-oxo-8-(trifluoromethyl)pyrazolo[1,5-a]pyrido[3,2-e]pyrimidin-4(5H)-yl)-N-(5-fluoropyridin-2-yl)acetamide] | 91.6 | 106.4 |  | 101.2 | −2.26 | 0.056 |  | 99.0 | ∞
4 | O=C(Cn1c(=O)c2ccc(C(F)(F)F)nc2n2nccc12)Nc1ccc(F)cn1 [Example 18, N-(5-Fluoropyridin-2-yl)-2-(5-oxo-8-(trifluoromethyl)pyrazolo[1,5-a]pyrido[3,2-e]pyrimidin-4(5H)-yl)acetamide] | 99.3 | 98.9 |  | 97.5 | −9.81 | 0.016 |  | 93.4 | 
